Measurements published in US5116941A, “Peptide substrates for determination of enzyme activity” (Nitto Boseki Co., Ltd., priority 1988, dated 1992).
Where a name gives a salt, the structure may show the parent alone. Where a SMILES comes first, the peptide text is derived from it.

Legend:
Factor Xa [1] = biological target: T1, Factor Xa (Bos taurus, UniProt P00743); assay: Substrate specificity: enzyme reaction with factor Xa, colorimetric; format: biochemical, Bovine; settings: for absorbance (O.D.) measured, FXa: So = 0.4 mmol, 37° C., 5 minutes, pH 8.3
T1 construct: purchased Sigma Inc. Lot 73F-9450
T1 sequence (P00743 234-492 limits assumed): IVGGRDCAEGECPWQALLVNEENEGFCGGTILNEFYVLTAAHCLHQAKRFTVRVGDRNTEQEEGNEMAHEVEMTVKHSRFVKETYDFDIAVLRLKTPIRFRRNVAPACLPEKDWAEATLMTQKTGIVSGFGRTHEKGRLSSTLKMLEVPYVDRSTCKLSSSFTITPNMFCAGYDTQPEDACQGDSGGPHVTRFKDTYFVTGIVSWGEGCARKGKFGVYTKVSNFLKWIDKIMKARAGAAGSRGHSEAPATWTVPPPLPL
T1 sequence (P00743 41-180 partner limits assumed): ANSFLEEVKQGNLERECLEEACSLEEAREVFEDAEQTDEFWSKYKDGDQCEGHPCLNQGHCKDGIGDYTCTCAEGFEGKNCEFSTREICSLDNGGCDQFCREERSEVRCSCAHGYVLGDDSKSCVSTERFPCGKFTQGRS
Method: (§1) Specificity of each of the new substrates synthesized in Examples 1 through 4 was examined by reacting with each enzyme. Details of reagents used are as described below.
(§2) (2) Buffer: concentration of Tris, NaCl and CaCl2 and pH (25° C.) were set as shown below, depending upon enzyme. […]
(§3) Enzyme used and its source, etc. are as follows. […]
(§4) (4) Terminate solution (PNA): 10% acetic acid
(§5) (5) Color forming reagent (CHA): pentacyanoamineferroate
(§6) Buffer, 0.5 ml and 0.1 ml of substrate solution are charged in a silicone-treated hard glass test tube or plastic test tube. The mixture is previously heated for 10 minutes in a thermostat at 37° C. Then, 0.1 ml of enzyme solution is added to the mixture to perform enzyme reaction at 37° C. for 5 minutes. Accurately 5 minutes after, 2.0 ml of the terminate solution is added to stop the enzyme reaction. Then the reaction mixture is allowed to stand at 37° C. for 10 minutes and its absorbance is measured at 405 nm or 700 nm.

Plasmin [2] = biological target: T2, Plasmin (Homo sapiens, UniProt P00747); assay: Substrate specificity: enzyme reaction with plasmin, colorimetric; format: biochemical; design: purchased Green Cross Company Lot PL-35; settings: for absorbance (O.D.) measured, PL: So = 0.4 mmol, 37° C., 5 minutes, pH 7.8
Method: as §1, §2, §3
Target sequence in this assay (P00747 581-810 limits assumed): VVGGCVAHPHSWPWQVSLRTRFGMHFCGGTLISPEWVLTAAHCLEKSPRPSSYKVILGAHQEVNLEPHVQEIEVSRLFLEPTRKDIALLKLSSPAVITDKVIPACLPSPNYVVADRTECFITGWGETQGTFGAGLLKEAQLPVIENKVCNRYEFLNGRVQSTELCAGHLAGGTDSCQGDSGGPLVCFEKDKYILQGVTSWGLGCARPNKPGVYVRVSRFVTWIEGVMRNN
Target sequence in this assay (P00747 97-580 partner limits assumed): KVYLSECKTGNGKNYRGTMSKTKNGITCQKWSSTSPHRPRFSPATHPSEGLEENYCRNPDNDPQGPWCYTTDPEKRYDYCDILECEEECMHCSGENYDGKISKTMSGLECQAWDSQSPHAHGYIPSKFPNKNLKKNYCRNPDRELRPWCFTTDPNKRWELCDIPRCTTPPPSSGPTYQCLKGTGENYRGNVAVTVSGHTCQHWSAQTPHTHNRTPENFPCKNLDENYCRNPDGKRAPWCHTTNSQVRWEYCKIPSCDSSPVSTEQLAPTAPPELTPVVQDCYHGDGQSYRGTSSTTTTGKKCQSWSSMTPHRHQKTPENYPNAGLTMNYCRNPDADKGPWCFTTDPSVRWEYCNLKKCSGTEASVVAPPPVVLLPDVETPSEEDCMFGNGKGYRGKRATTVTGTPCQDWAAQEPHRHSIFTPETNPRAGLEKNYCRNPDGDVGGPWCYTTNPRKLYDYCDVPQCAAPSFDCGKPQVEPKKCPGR
Plasmin Human Green Cross PL-35 0.25 CU/ml
as §4, §5, §6

Trypsin = biological target: T3, Trypsin (Bos taurus, UniProt P00760); assay: Substrate specificity: enzyme reaction with trypsin, colorimetric; format: biochemical, Bovine; settings: for absorbance (O.D.) measured, Try: So = 0.4 mmol, 37° C., 5 minutes, pH 8.0
T3 construct: purchased Wersinton (so in the source)
T3 sequence (P00760 24-246): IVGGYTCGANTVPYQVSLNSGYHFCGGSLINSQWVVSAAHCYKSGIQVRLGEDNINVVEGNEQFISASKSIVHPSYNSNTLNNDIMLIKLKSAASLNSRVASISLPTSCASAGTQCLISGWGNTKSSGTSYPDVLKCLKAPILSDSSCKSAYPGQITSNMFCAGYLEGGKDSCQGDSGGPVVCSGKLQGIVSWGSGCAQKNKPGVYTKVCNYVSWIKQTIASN
Method: as §1, §2, §3
Trypsin Bovine Wersinton 31M771 10 μg/ml
as §4, §5, §6

Thrombin [3] = biological target: T4, Thrombin (Bos taurus, UniProt P00735); assay: Substrate specificity: enzyme reaction with thrombin, colorimetric; format: biochemical, Bovine; settings: for absorbance (O.D.) measured, TH: So = 0.4 mmol, 37° C., 5 minutes, pH 8.5
T4 construct: purchased Mochida Pharmaceutical Company Lot 65146
Method: as §1, §2, §3, §4, §5, §6

Kallikrein = assay: Substrate specificity: enzyme reaction with kallikrein, colorimetric; format: biochemical, Swine; settings: So = 0.4 mmol, 37° C., 5 minutes, pH 7.8
Method: as §1, §2, §3, §4, §5, §6

Plasmin [4] = biological target: T2, Plasmin; settings: it is known; cited from earlier work
Target sequence in this assay (P00747 581-810 limits assumed, species assumed): as the sequence (P00747 581-810 limits assumed) above
Target sequence in this assay (P00747 97-580 partner limits assumed, species assumed): as the sequence (P00747 97-580 partner limits assumed) above

thrombin [5] = biological target: thrombin (Homo sapiens, UniProt P00734); settings: it is known; cited from earlier work
factor Xa [6] = biological target: factor Xa (Homo sapiens, UniProt P00742); settings: it is known; cited from earlier work
Chain of factor Xa (P00742 235-488 limits assumed): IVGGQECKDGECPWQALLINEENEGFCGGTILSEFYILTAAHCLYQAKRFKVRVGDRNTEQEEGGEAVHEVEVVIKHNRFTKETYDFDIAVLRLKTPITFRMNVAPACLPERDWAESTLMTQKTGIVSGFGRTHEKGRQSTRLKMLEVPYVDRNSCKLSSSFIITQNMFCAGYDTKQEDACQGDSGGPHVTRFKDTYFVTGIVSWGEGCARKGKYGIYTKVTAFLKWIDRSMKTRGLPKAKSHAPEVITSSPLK
Chain of factor Xa (P00742 41-179 partner limits assumed): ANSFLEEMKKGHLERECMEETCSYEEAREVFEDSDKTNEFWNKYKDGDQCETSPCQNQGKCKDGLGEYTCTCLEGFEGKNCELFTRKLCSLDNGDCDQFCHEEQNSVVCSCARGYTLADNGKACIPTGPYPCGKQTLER

[7] = 700 nm, pentacyanoamineferroate
[8] = CHR-TRY is made 100, So=0.4 mmol

Molecule | absorbance (O.D.) measured, FXa (Factor Xa [1]; [7]) [O.D.] | absorbance (O.D.) measured, PL (Plasmin [2]; [7]) [O.D.] | absorbance (O.D.) measured, Try (Trypsin; [7]) [O.D.] | absorbance (O.D.) measured, TH (Thrombin [3]; [7]) [O.D.] | absorbance (O.D.) measured, KL (Kallikrein; [7]) [O.D.] | further results
CC(C)[C@H](NC(=O)OCc1ccccc1)C(=O)NCC(=O)N[C@@H](CCCNC(=N)N)C(=O)Nc1ccc([N+](=O)[O-])cc1 [CHR-TRY, Benzyloxy-carbonyl-Val-Gly-Arg-p-Nitroanilide, reference compound] (HELM PEPTIDE1{[O=C(OCc1ccccc1)[*:2]].V.G.R.[O=[N+]([O-])c1ccc(N[*:1])cc1]}$$$$V2.0) | – | – | – | – | – | reaction with plasmin (Plasmin [4]): considerably reacts; reaction with thrombin (thrombin [5]): considerably reacts; absorbance (O.D.) measured, FXa (Factor Xa [1]; 405 nm (PNA substrate)): 0.090 O.D.; absorbance (O.D.) measured, PL (Plasmin [2]; 405 nm (PNA substrate)): 0.014 O.D.; absorbance (O.D.) measured, Try (Trypsin; 405 nm (PNA substrate)): 0.243 O.D.; absorbance (O.D.) measured, TH (Thrombin [3]; 405 nm (PNA substrate)): 0.050 O.D.; reaction with factor Xa (factor Xa [6]): considerably reacts; absorbance (O.D.) measured, KL (Kallikrein; 405 nm (PNA substrate)): 0.008 O.D.
CCC[C@H](NC(=O)[C@@H]1CCC(=O)N1)C(=O)N[C@@H](CCCNC(=N)N)C(=O)Nc1ccc(O)c(C(=O)O)c1 [PS-1295, H--PyroGlu--NVal--Arg--CHA.HCl] | 0.008 | 0.008 | 0.637 | 0.002 | 0.006 | –
H--D--PyroGlu--Ala--Arg--CHA.HCl [PS-1290] | 0.007 | 0.000 | 0.403 | 0.005 | 0.002 | –
C[C@H](NC(=O)[C@@H]1CCC(=O)N1)C(=O)N[C@@H](CCCNC(=N)N)C(=O)Nc1ccc(O)c(C(=O)O)c1 [PS-1245, H-PyroGlu-Ala-Arg-CHA] | 0.008 | 0.005 | 0.676 | 0.006 | 0.005 | reactivity with factor Xa relative to CHR-TRY (Factor Xa [1]; CHR-TRY is made 100): 19%; Relative Reactivity of Substrate to Each Enzyme, FXa (Factor Xa [1]; [8]): 9; reactivity with plasmin relative to CHR-TRY (Plasmin [2]; CHR-TRY is made 100): 36%; Relative Reactivity of Substrate to Each Enzyme, PL (Plasmin [2]; [8]): 36; reactivity with trypsin relative to CHR-TRY (Trypsin; CHR-TRY is made 100): 278%; Relative Reactivity of Substrate to Each Enzyme, Try (Trypsin; [8]): 278; reactivity with thrombin relative to CHR-TRY (Thrombin [3]; CHR-TRY is made 100): 12%; Relative Reactivity of Substrate to Each Enzyme, TH (Thrombin [3]; [8]): 12
H--D--PyroGlu--Pro--Arg--CHA.HCl [PS-1291] | 0.007 | 0.004 | 0.556 | 0.012 | 0.002 | –
N=C(N)NCCC[C@H](NC(=O)[C@@H]1CCCCN1C(=O)[C@@H]1CCC(=O)N1)C(=O)Nc1ccc(O)c(C(=O)O)c1 [PS-1292] | 0.007 | 0.005 | 0.814 | 0.021 | 0.002 | –

Now from value to molecule, other results behind:

absorbance (O.D.) measured, FXa (Factor Xa [1]; [7]) [O.D.] | absorbance (O.D.) measured, PL (Plasmin [2]; [7]) [O.D.] | absorbance (O.D.) measured, Try (Trypsin; [7]) [O.D.] | absorbance (O.D.) measured, TH (Thrombin [3]; [7]) [O.D.] | absorbance (O.D.) measured, KL (Kallikrein; [7]) [O.D.] | Molecule | further results
0.004 | 0.004 | 0.401 | 0.002 | 0.003 | N=C(N)NCCC[C@H](NC(=O)CNC(=O)[C@H](N)CCC(=O)O)C(=O)Nc1ccc(O)c(C(=O)O)c1 [PS-1298, H--D--Glu--Gly--Arg--CHA.2HCl] | –
0.007 | 0.007 | 0.434 | 0.002 | 0.002 | CC(C)[C@H](NC(=O)[C@@H]1CCC(=O)N1)C(=O)N[C@@H](CCCNC(=N)N)C(=O)Nc1ccc(O)c(C(=O)O)c1 [PS-1293, H--PyroGlu--Val--Arg--CHA.HCl] | –
0.008 | 0.010 | 0.656 | 0.002 | 0.006 | CCCC[C@H](NC(=O)[C@@H]1CCC(=O)N1)C(=O)N[C@@H](CCCNC(=N)N)C(=O)Nc1ccc(O)c(C(=O)O)c1 [PS-1296, H--PyroGlu--NLeu--Arg--CHA.HCl] | –
0.010 | 0.008 | 0.588 | 0.003 | 0.003 | CC[C@H](NC(=O)[C@@H]1CCC(=O)N1)C(=O)N[C@@H](CCCNC(=N)N)C(=O)Nc1ccc(O)c(C(=O)O)c1 [PS-1294, H--PyroGlu--But--Arg--CHA.HCl] | –
0.008 | 0.013 | 0.570 | 0.022 | 0.004 | N=C(N)NCCC[C@H](NC(=O)[C@@H]1CCCN1C(=O)[C@@H]1CCC(=O)N1)C(=O)Nc1ccc(O)c(C(=O)O)c1 [PS-1242, H--PyroGlu--Pro--Arg--CHA] | –
